Results: US20020137929A1, “1 - (3-heterocyclylphenyl) isothiourea, -isourea, -guanidine and -amidine herbicidal agents” (Intellectual Property Department, BASF Aktiengesellschaft, priority 1998, published 2002)

Experiments:
MOOVA (Monochoria) = assay: Preemergence weed control under flooded paddy conditions; assay type: in vivo, Monochoria vaginalis; conditions: rated 3-4 weeks after treatment
Procedure, shortened: (§1)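 Greenhouse paddy assay. Acetone/water (50/50 v/v) solutions dosed into flood water, equivalent to about 0.0313 to 0.500 kg/ha active ingredient, over seeds planted 0.5 cm deep in silt loam. Score: 0-9 visual, based on stand, vigor, malformation, size and chlorosis, 3 to 4 weeks after treatment.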

ABUTH (Velvetleaf) [1] = assay: Postemergence herbicidal evaluation; assay type: in vivo, Abutilon theophrasti; conditions: postemergence
Procedure, shortened: (§2)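 Each compound, dispersed in an acetone/water mix (50/50) carrying 0.5% TWEEN 20, is nozzle-sprayed at 40 psi on approximately two-week-old seedlings at about 0.0156–0.500 kg/ha. Plants are assessed 4–5 weeks afterward on a 0–9 scale relative to control; duplicate tests are averaged.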

ECHCG (Barnyardgrass) = assay: Postemergence herbicidal evaluation; assay type: in vivo, Echinochloa crus-galli; conditions: postemergence
Procedure, shortened: as §2

[2] = tested on: TRZAWR (Wheat, Winter, cv Riband); assay: Postemergence herbicidal evaluation; assay type: in vivo, Triticum aestivum; conditions: postemergence
Procedure, shortened: as §2

CASOB (Sicklepod) = assay: Preemergence herbicidal evaluation; assay type: in vivo, Cassia obtusifolia; conditions: rated 4-5 weeks after treatment
Procedure, shortened: (§3)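 Scores use a 0–9 visual scale covering stand, vigor, malformation, size and chlorosis relative to controls, rated four to five weeks after treatment. Before emergence, soil-planted seeds were sprayed with compound in aqueous acetone at roughly 0.0156–0.500 kg/ha and held in the greenhouse.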

ORYSAT (Rice, Tebonnet) = assay: Postemergence herbicidal evaluation; assay type: in vivo, Oryza sativa, (L.) Tebonnet; conditions: postemergence
Procedure, shortened: as §2

SETVI (Foxtail, Green) [3] = assay: Preemergence herbicidal evaluation; assay type: in vivo, Setaria viridis; conditions: rated 4-5 weeks after treatment
Procedure, shortened: as §3

AMBEL (Ragweed, Common) = assay: Postemergence herbicidal evaluation; assay type: in vivo, Ambrosia artemisifolia; conditions: postemergence
Procedure, shortened: as §2

ABUTH (Velvetleaf) [4] = assay: Preemergence herbicidal evaluation; assay type: in vivo, Abutilon theophrasti; conditions: rated 4-5 weeks after treatment
Procedure, shortened: as §3

[5] = tested on: SAGPY (Arrowhead (Pygmaea)); assay: Preemergence weed control under flooded paddy conditions; assay type: in vivo, Sagittaria pygmaea; conditions: rated 3-4 weeks after treatment
Procedure, shortened: as §1

SETVI (Foxtail, Green) [6] = assay: Postemergence herbicidal evaluation; assay type: in vivo, Setaria viridis; conditions: postemergence
Procedure, shortened: as §2

[7] = tested on: GLXMAW (Soybean, Williams); assay: Postemergence herbicidal evaluation; assay type: in vivo, Glycine max, (L.) Merr. cv Williams; conditions: postemergence
Procedure, shortened: as §2

## CCOC(=O)CN1C(=O)C(C(=O)OCC)SC1=Nc1cc(-n2c(=O)cc(C(F)(F)F)n(C)c2=O)c(F)cc1Cl (stereo not drawn) [Compound 127, 5-Carboxy-2-{{2-chloro-5-[3,6-dihydro-3-methyl-2,6-dioxo-4-(trifluoromethyl)-1(2H)-pyrimidinyl]-4-fluorophenyl}imino}-4-oxo-3-thiazolidineacetic acid, diethyl ester]
MOOVA (Monochoria); 0.0313 kg/ha
  herbicidal effect rating, MOOVA: 3.0
MOOVA (Monochoria); 0.0625 kg/ha
  herbicidal effect rating, MOOVA: 3.0
MOOVA (Monochoria); 0.1250 kg/ha
  herbicidal effect rating, MOOVA: 5.0
MOOVA (Monochoria); 0.2500 kg/ha
  herbicidal effect rating, MOOVA: 7.0
ABUTH (Velvetleaf) [1]; rate 0.0156 kg/ha
  herbicidal rating ABUTH: 9.0
ABUTH (Velvetleaf) [1]; rate 0.0313 kg/ha
  herbicidal rating ABUTH: 9.0
ABUTH (Velvetleaf) [1]; rate 0.0625 kg/ha
  herbicidal rating ABUTH: 9.0
ABUTH (Velvetleaf) [1]; rate 0.1250 kg/ha
  herbicidal rating ABUTH: 9.0
ECHCG (Barnyardgrass); rate 0.0156 kg/ha
  herbicidal rating ECHCG: 0.0
ECHCG (Barnyardgrass); rate 0.0313 kg/ha
  herbicidal rating ECHCG: 0.0
ECHCG (Barnyardgrass); rate 0.0625 kg/ha
  herbicidal rating ECHCG: 1.0
ECHCG (Barnyardgrass); rate 0.1250 kg/ha
  herbicidal rating ECHCG: 3.0
[2]; rate 0.0156 kg/ha
  herbicidal rating TRZAWR: 2.5
[2]; rate 0.0313 kg/ha
  herbicidal rating TRZAWR: 2.5
[2]; rate 0.0625 kg/ha
  herbicidal rating TRZAWR: 3.5
[2]; rate 0.1250 kg/ha
  herbicidal rating TRZAWR: 6.0
CASOB (Sicklepod); rate 0.0313 kg/ha
  Preemergence herbicidal rating CASOB: 0.0
CASOB (Sicklepod); rate 0.0625 kg/ha
  Preemergence herbicidal rating CASOB: 0.0
CASOB (Sicklepod); rate 0.1250 kg/ha
  Preemergence herbicidal rating CASOB: 0.0
CASOB (Sicklepod); rate 0.2500 kg/ha
  Preemergence herbicidal rating CASOB: 2.0
CASOB (Sicklepod); rate 0.5000 kg/ha
  Preemergence herbicidal rating CASOB: 6.0
ORYSAT (Rice, Tebonnet); rate 0.0156 kg/ha
  herbicidal rating ORYSAT: 0.5
ORYSAT (Rice, Tebonnet); rate 0.0313 kg/ha
  herbicidal rating ORYSAT: 0.5
ORYSAT (Rice, Tebonnet); rate 0.0625 kg/ha
  herbicidal rating ORYSAT: 0.5
ORYSAT (Rice, Tebonnet); rate 0.1250 kg/ha
  herbicidal rating ORYSAT: 2.5
SETVI (Foxtail, Green) [3]; rate 0.0313 kg/ha
  Preemergence herbicidal rating SETVI: 0.0
SETVI (Foxtail, Green) [3]; rate 0.0625 kg/ha
  Preemergence herbicidal rating SETVI: 0.0
SETVI (Foxtail, Green) [3]; rate 0.1250 kg/ha
  Preemergence herbicidal rating SETVI: 9.0
SETVI (Foxtail, Green) [3]; rate 0.2500 kg/ha
  Preemergence herbicidal rating SETVI: 9.0
SETVI (Foxtail, Green) [3]; rate 0.5000 kg/ha
  Preemergence herbicidal rating SETVI: 9.0
AMBEL (Ragweed, Common); rate 0.0156 kg/ha
  herbicidal rating AMBEL: 9.0
AMBEL (Ragweed, Common); rate 0.0313 kg/ha
  herbicidal rating AMBEL: 9.0
AMBEL (Ragweed, Common); rate 0.0625 kg/ha
  herbicidal rating AMBEL: 9.0
AMBEL (Ragweed, Common); rate 0.1250 kg/ha
  herbicidal rating AMBEL: 9.0
ABUTH (Velvetleaf) [4]; rate 0.0313 kg/ha
  Preemergence herbicidal rating ABUTH: 7.0
ABUTH (Velvetleaf) [4]; rate 0.0625 kg/ha
  Preemergence herbicidal rating ABUTH: 7.0
ABUTH (Velvetleaf) [4]; rate 0.1250 kg/ha
  Preemergence herbicidal rating ABUTH: 9.0
ABUTH (Velvetleaf) [4]; rate 0.2500 kg/ha
  Preemergence herbicidal rating ABUTH: 9.0
ABUTH (Velvetleaf) [4]; rate 0.5000 kg/ha
  Preemergence herbicidal rating ABUTH: 9.0
[5]; 0.0313 kg/ha
  herbicidal effect rating, SAGPY: 0.0
[5]; 0.0625 kg/ha
  herbicidal effect rating, SAGPY: 0.0
[5]; 0.1250 kg/ha
  herbicidal effect rating, SAGPY: 0.0
[5]; 0.2500 kg/ha
  herbicidal effect rating, SAGPY: 3.0
SETVI (Foxtail, Green) [6]; rate 0.0156 kg/ha
  herbicidal rating SETVI: 0.0
SETVI (Foxtail, Green) [6]; rate 0.0313 kg/ha
  herbicidal rating SETVI: 1.0
SETVI (Foxtail, Green) [6]; rate 0.0625 kg/ha
  herbicidal rating SETVI: 7.0
SETVI (Foxtail, Green) [6]; rate 0.1250 kg/ha
  herbicidal rating SETVI: 9.0
[7]; rate 0.0156 kg/ha
  herbicidal rating GLXMAW: 5.0
[7]; rate 0.0313 kg/ha
  herbicidal rating GLXMAW: 5.5
[7]; rate 0.0625 kg/ha
  herbicidal rating GLXMAW: 7.5
[7]; rate 0.1250 kg/ha
  herbicidal rating GLXMAW: 9.0
